How the values were obtained:
OPM2 cells = experiment: Cell viability (MTT) and combination index, ABTL0812 with bortezomib; assay type: cell-based; conditions: ABTL0812 5 μM, Bortezomib 1 nM, alone or combined; 48h
Protocol: (§1) Methods: JJN-3 and OPM2 cells were seeded in 24-well plates and treated with ABTL0812 (5 μM), bortezomib (0.5 and 1 nM respectively) or a combination of both drugs and left in the incubator for 48h (0.5% FBS). Cell viability was studied by the MTT assay and combination index was determined to evaluate a possible synergism.
(§2) Cell viability was evaluated in all cases by MTT assay and the Combination Index (CI), to evaluate synergism, was calculated according to the method of Chou and Talalay (Chou 2006; Chou 2010), as follows: CI=(D)1/(Dx)1+(D)2/(Dx)2, where CI<1, =1, and >1 indicate synergism, additive effect, and antagonism, respectively. In the denominator, (Dx)1 is for D1 “alone” that inhibits a system x %, and (Dx)2 is for D2 “alone” that inhibits a system x %.

JJN-3 cells = experiment: as above; assay type: cell-based; conditions: ABTL0812 5 μM, Bortezomib 0.5 nM, alone or combined; 48h
Protocol: as §1, §2

LA1-5S cells [1] = experiment: Cell viability (crystal violet), ABTL0812 with temozolomide; assay type: cell-based; conditions: ABTL0812 40 μM + temozolomide 500, 1000, 1500 μM; 48 hours; 0.5% FBS
Protocol: (§3) Methods: LA1-5S and SK-N-BE(2) cells were incubated with increasing concentrations of temozolomide (500 μM, 1000 μM and 1500 μM), and subIC50 fixed concentrations of ABTL0812. (30 μM for SK-N-BE(2) and 40 μM for LA1-5S). Cells were treated for 48 hours in IMDM with 0.5% FBS. Cell viability was evaluated by crystal violet assay. Different doses were assessed in six replicates and the results shown are the average of two independent experiments. Statistical analyses were performed according to the T-Test principle with GraphPad Prism® 5.0 software.

SK-N-BE(2) cells = experiment: as above; assay type: cell-based; conditions: ABTL0812 30 μM + temozolomide 500, 1000, 1500 μM; 48 hours; 0.5% FBS
Protocol: as §3

LA1-5S cells [2] = experiment: Cell viability (crystal violet), ABTL0812 with irinotecan; assay type: cell-based; conditions: ABTL0812 30 μM + irinotecan 4, 8, 16 μM; 72 hours
Protocol: Methods: LA1-5S cells were incubated with increasing concentrations of irinotecan (4 μM, 8 μM and 16 μM) and a fixed concentration of ABTL0812 (30 μM). Cells were treated for 72 hours in IMDM with 0.5% FBS. Cell viability was evaluated by crystal violet assay. Data is presented as mean±SEM of three independent experiments. Statistical analyses were performed according to the T-Test principle with GraphPad Prism® 5.0 software (*p<0.05; **p<0.01; ***p<0.001).

T98G cells = experiment: Human glioblastoma subcutaneous xenograft, ABTL0812 with radiotherapy; assay type: in vivo, nude mice
Protocol: (§4) Methods: Mice were injected subcutaneously with 1×10^6 U87MG or T98G cells in each flank to induce tumor formation. […] ABTL0812 was administered orally at 240 mg/kg 5 days/week and radiotherapy as single dose of 4 Gy administered at day 3.

U87MG cells = experiment: as above; assay type: in vivo, nude mice
Protocol: as §4

LLC1 cells = experiment: Syngeneic lung cancer model, subcutaneous LLC1, tumor volume; assay type: in vivo, C57BL6 mice; conditions: ABTL0812 oral 120 mg/kg/day; anti-PD1 i.p. 100 μg/dose every three days; carboplatin and paclitaxel i.p. once a week
Protocol: C57BL6 mice were injected with 0.25×10^6 LLC1 cells in one flank to induce tumor formation. […] Tumor volume and body weight were monitored 3 times a week.

LA1-5S cells [3] = experiment: Cell viability (crystal violet), ABTL0812 with cyclophosphamide; assay type: cell-based; conditions: ABTL0812 30 μM + cyclophosphamide 1, 1.5, 2 μM; 72 hours
Protocol: Methods: LA1-5S cells were incubated with increasing concentrations of cyclophosphamide (1 μM, 1.5 μM and 2 μM) and a subIC50 fixed concentration of ABTL0812 (30 μM). Cells were treated for 72 hours in IMDM with 0.5% FBS. Cell viability was evaluated by crystal violet assay. Data is presented as mean±SEM of three independent experiments. Statistical analyses were performed according to the T-Test principle with GraphPad Prism® 5.0 software (*p<0.05; **p<0.01; ***p<0.001).

[4] = tested on: PMA-activated THP-1 macrophages; experiment: Conditioned media of ABTL0812-treated MiaPaca2 cells on THP-1 macrophages; assay type: cell-based, human; conditions: conditioned media from MiaPaca2 cells treated with ABTL0812 40 μM 72 hours
Protocol: Methods: MiaPaca2 cells were incubated with 40 μM of ABTL0812 during 72 hours and conditioned media (RPMI) of these ABTL0812-treated cells were collected. In parallel, human THP-1 cells were differentiated to macrophages by incubation with PMA (Phorbol myristate acetate) for 24 hours, inducing their attachment to the plates. Then, conditioned media from ABTL0812-treated MiaPaca2 cells was transferred to PMA-activated THP-1 macrophages and incubated during 24 hours for RT-qPCR analysis of M1 phenotype markers IL-1β and TNF-α, or during 48 hours for cell viability studies using the MTT assay. For M1 marker analysis, cells were collected, RNA extracted, retrotranscribed to cDNA and mRNA levels of IL-1β and TNF-α assessed by RT-qPCR.

PDL1 = PDL1 expression in cancer cells by flow cytometry (Example 6.2); assay type: cell-based, human; conditions: ABTL0812 100 μM, 48 hours
Protocol: Methods: Human cancer cell lines were incubated with 100 μM of ABTL0812 during 48 hours and collected for staining with anti-PDL1 antibody labeled with a fluorophore. After staining of cells with anti-PDL1 antibody, cells were run on Flow Cytometry (Facs Canto) to analyzed PDL1 levels in cancer cells. Additionally, we incubated Panc-1 cells with ABTL0812 (50 μM), IFNγ (2.5 ng/ml), a master regulator of PDL1 expression or a combination with both. Then, cells were collected, stained with anti-PDL1 antibody and analyzed by Flow Cytometry for the expression of PDL1.

[5] = ABTL0812 oral 240 mg/kg 5 days/week
[6] = ABTL0812 oral 240 mg/kg 5 days/week + radiotherapy single dose 4 Gy at day 3

For CCCCC/C=C\C/C=C\CCCCCCC(O)C(=O)O (stereo not shown) [ABTL0812, COOH—CHOH—(CH2)6—(CH═CH—CH2)2—(CH2)3—CH3], the cell death (OPM2 cells) was “around 20%”, the cell death (JJN-3 cells) was “around 10%” and the “temozolomide cytotoxicity on addition of ABTL0812” value (LA1-5S cells [1]) was “increased temozolomide cytotoxicity”. For the same compound, the “temozolomide cytotoxicity on addition of ABTL0812” value (SK-N-BE(2) cells) was “increased temozolomide cytotoxicity”, the “irinotecan cytotoxicity on addition of ABTL0812” value (LA1-5S cells [2]) was “significantly increased irinotecan cytotoxicity” and the “growth of subcutaneous tumors, single agent” value (T98G cells; [5]) was “significantly decreased the growth of glioblastoma subcutaneous tumors”. For the same compound, the “growth of subcutaneous tumors, combination with radiotherapy” value (T98G cells; [6]) was “significantly more efficacious than ABTL0812 or radiotherapy as single treatments”, the “growth of subcutaneous tumors, single agent” value (U87MG cells; [5]) was “significantly decreased the growth of glioblastoma subcutaneous tumors” and the “growth of subcutaneous tumors, combination with radiotherapy” value (U87MG cells; [6]) was “significantly more efficacious than ABTL0812 or radiotherapy as single treatments”. For the same compound, the tumor volume (LLC1 cells) was “significantly reduced tumor volume”, the “cyclophosphamide cytotoxicity on addition of ABTL0812” value (LA1-5S cells [3]) was “significantly increased cyclophosphamide cytotoxicity at 1 μM” and the “gene expression of IL-1β” value ([4]; 24 hours on macrophages) was “significantly increasing the gene expression”. For the same compound, the “gene expression of TNF-α” value ([4]; 24 hours on macrophages) was “significantly increasing the gene expression”, the “THP-1 cell viability (MTT)” value ([4]; 48 hours on macrophages) was “significantly increasing THP-1 cell viability” and the “PDL1 expression, increase from basal levels” value (PDL1; Capan-2 cells) was 86%. The “PDL1 expression, increase from basal levels” value (PDL1; MiaPaca2 cells) was 34%.

— patent US20230088704A1, “A PHARMACEUTICAL COMBINATION FOR THE TREATMENT OF A CANCER” (ABILITY PHARMACEUTICALS S.L., priority 2020, published 2023)
